From PMC7841069, “Identification of Chalcone Derivatives as Inhibitors of Leishmania infantum Arginase and Promising Antileishmanial Agents” (Frontiers in Chemistry, 2021)
Where two headings read alike, the source gives them in different places.

Key:
[1] = Cytotoxicity assay (MTT); assay type: cell-based; conditions: mouse, read-out: RAW 264.7 CC50 ± SE
Protocol: (§1) RAW 264.7 macrophages were cultured in DMEM medium (Sigma-Aldrich, USA) supplemented with 10% fetal bovine serum at 37°C in 5% CO2 atmosphere. Cells were plated on 96-well microplates at a density of 10^5 cells/well and incubated at 37°C in 5% CO2 for 2 h. After this period, increasing concentrations of inhibitors (0.9–4,307 μM) were added and the cultures were incubated at 37°C in 5% CO2 for 48 h. Subsequently, cell viability was measured by a colorimetric assay using 3-(4,5-dimethylthiazol-2-yl)-2,5-diphenyl tetrazolium bromide (MTT) (Sigma-Aldrich, USA). MTT was added to the culture medium at a final concentration of 1.0 mg/mL, and cultures were incubated at 37°C in 5% CO2 for 3 h. MTT was transformed by the living cells in formazan crystals that were dissolved in DMSO. The concentration of formazan was measured spectrophotometrically at 570 nm (SpectraMax M5, Molecular Devices, CA). The 50% cytotoxic concentration (CC50) values were determined by the nonlinear regression fits of the dose-response curves using GraphPad Prism 8.0. All measurements were performed in triplicates, twice independently.

[2] = tested on: RAW 264.7 macrophages; test: Cytotoxicity assay (MTT); assay type: cell-based; conditions: 48 h
Protocol: as §1

[3] = tested on: Leishmania infantum promastigotes; test: Activity against Leishmania infantum promastigotes (resazurin); assay type: cell-based; conditions: for IC50: Leishmania infantum, read-out: Promastigotes IC50 ± SE; for Selectivity Index PRO: CC50 host cell / IC50 promastigotes
Protocol: Promastigotes of Leishmania infantum strain MHOM/BR/1974/PP75 were cultured in Schneider's medium supplemented with 10% fetal bovine serum at 26°C. First, the selected LiARG inhibitors were diluted in culture medium at concentrations ranging from 2.9 to 1,723.0 μM. Then, late-exponential phase (after 96 h growth) L. infantum promastigotes, at a final density of 10^5 parasites/mL, were incubated with previously diluted inhibitors at 26°C for 96 h. Subsequently, parasite viability was determined by a colorimetric assay using resazurin (Sigma-Aldrich, USA). Resazurin was added to the culture medium at a final concentration of 0.001% (w/v), and cultures were further incubated at 26°C for 4 h (Rólon et al., [2006]). Resazurin is reduced to resorufin by living cells, and the relative concentration of resorufin/resazurin was measured spectrophotometrically at 570/600 nm (SpectraMax M5, Molecular Devices, CA), respectively. Fungizone® (2.0–650.0 nM) was used as the reference drug. The 50% inhibitory concentration (IC50) values were determined by the nonlinear regression fits of the dose-response curves using GraphPad Prism 8.0. All measurements were performed in triplicates, twice independently.
(§2) The selectivity index for promastigotes and intracellular amastigotes of L. infantum was calculated by taking the ratio between the CC50 obtained for the host cell and the IC50 obtained for the parasite. Inhibitors displaying selectivity index > 10 were considered low cytotoxic (Katsuno et al., [2015]).

[4] = tested on: Leishmania infantum intracellular amastigotes; test: Activity against intracellular amastigotes (promastigote recovery assay); assay type: cell-based; conditions: for Selectivity Index AMA: CC50 host cell / IC50 intracellular amastigotes
Protocol: (§3) Intracellular anti-amastigote activity was determined using the promastigote recovery assay with minor modifications (Ferreira et al., [2017]). RAW 264.7 macrophages were plated on 96-well microplates at a density of 10^5 cells/well and incubated at 37°C in 5% CO2 for 2 h. After this period, adherent cells were washed twice with phosphate buffered saline (PBS, pH 7.2) and infected with stationary-phase L. infantum promastigotes at a 10:1 parasite/macrophage ratio. After 4 h of infection at 37°C in 5% CO2, free parasites were removed by a wash step with PBS and infected macrophages were incubated for an additional 24 h to allow parasite differentiation into amastigotes. Then, infected cells were treated with increasing concentrations of selected LiARG inhibitors (11.0–54.0 μM) for 48 h. After this period, the culture supernatant was collected for the evaluation of NO production by the Griess reaction (Misko et al., [1993]), and cells were washed with PBS. Subsequently, PBHIL medium supplemented with 5% fetal bovine serum was added and the cultures were incubated at 26°C for 72 h to recover L. infantum promastigotes. Only viable amastigotes can differentiate into promastigotes. Then, parasite viability was determined by a colorimetric assay using MTT (1.0 mg/mL) (Sigma-Aldrich, USA), as described earlier. Fungizone® (130–540 nM) was used as the reference drug. Results were expressed as percentages of viability in relation to the control (100% viability). The 50% inhibitory concentration (IC50) values were determined by the nonlinear regression fits of the dose-response curves using GraphPad Prism 8.0. All measurements were performed in triplicates, twice independently.
as §2

[5] = tested on: L. infantum-infected macrophages; test: NO production by L. infantum-infected macrophages (Griess reaction); assay type: cell-based; conditions: 11–54 μM, 48 h, vs untreated control
Protocol: as §3
Figure 4 Effect of chalcone derivatives on the production of nitric oxide by L. infantum-infected macrophages. L. infantum-infected macrophages were treated with increasing concentrations of (A–D) chalcone derivatives (11–54 μM) or (E) the reference drug fungizone (0.13–0.54 μM) and nitrite concentration was measured by the Griess reaction. Control represents the amount of nitric oxide produced by L. infantum-infected macrophages in the absence of any treatment. Statistical analysis of the differences between mean values obtained for the experimental groups was done by ANOVA with Tukey's post hoc test.

[6] = tested on: RAW 264.7 macrophages; set-up: method as in Ventura et al. (2015); conditions: ref Ventura et al. (2015), read-out: IC50 for NO; cited from earlier work
[7] = tested on: Leishmania infantum arginase (LiARG); test: LiARG enzyme inhibition assay (urea formation, UREA CE kit); assay type: biochemical; conditions: 100 μM inhibitor; control without inhibitor = 100% activity
Protocol: LiARG expression and purification was performed as described previously (Garcia et al., [2019]). Escherichia coli BL21 (DE3) cells were transformed with RP1B-LiARG. Cells were grown at 37°C until mid-exponential phase (Abs600 ~ 0.6). Protein expression was induced with 1 mM IPTG and cells were grown for 16 h at 30°C. Cells were harvested by centrifugation, resuspended in lysis buffer [50 mM Tris-HCl (pH 8.0), 500 mM NaCl, 5 mM imidazol, 0.1% Triton-X 100, 250 μM PMSF, 10 mM β-mercaptoethanol] and lysed by sonication (15 cycles 60 s on and 60 s off, 100 W). The cell lysate was centrifuged (8,000 X g, 40 min, 4°C), and the clarified supernatant was loaded onto a His-Trap HP column (GE Healthcare, USA). A wash step with 100 mM manganese chloride was carried out for enzyme activation. LiARG was eluted with an imidazole gradient ranging from 5 to 500 mM. […] LiARG activity was measured using the UREA CE kit (Labtest, Brazil). Urea concentration was determined spectrophotometrically (SpectraMax M5, Molecular Devices, CA) by hydrolyzing urea into ammonia and then converting ammonia into indophenol blue, which absorbs light at 600 nm ([…] and Scott, [1960]). Enzyme activity was measured with 0.2 μg/mL LiARG incubated with 50 mM L-arginine in 50 mM CHES (pH 9.5) at 37°C for 5 min. […] The results are expressed as percentage of LiARG activity taking the enzymatic activity of the control as 100%. […]

[8] = tested on: Leishmania amazonensis arginase (LaARG); set-up: method as in da Silva et al. (2019); conditions: 100 μM; ref da Silva et al. (2019); cited from earlier work
[9] = Leishmania infantum, Macrophage, 48 h, infected macrophages treated 48 h, promastigote recovery, MTT, read-out: Amastigotes IC50 ± SE

Row | SMILES | CC50 at 48 h ([1]; RAW 264.7 macrophages) [µM] | IC50 ([3]; 96 h, resazurin) [µM] | Selectivity Index PRO [3] | Selectivity Index AMA [4] | IC50 [4, 9] [µM] | production of NO by L. infantum-infected macrophages [5] | also measured
1 | O=C(c1ccccc1)C(C(O)c1ccccc1Cl)C(O)c1ccccc1Cl (stereo not shown) [LC37, 3-hydroxy-2-[-hydroxy(2-Chlorophenyl)methyl]-3-(2-Chlorophenyl)-1-phenyl-1-Propanone] | > 4000 | > 1500 | – | – | – | – | RAW 264.7 CC50 ± SE [2]: did not inhibit the growth of RAW 264.7 macrophages at the highest concentration tested; Promastigotes IC50 ± SE ([3]; 96 h, resazurin): did not display in vitro activity
2 | COc1ccc(C(=O)C=Cc2ccc([N+](=O)[O-])cc2)cc1 [LC41, 1-(4-Methoxyphenyl)-3-(4-Nitrophenyl)-2-Propen-1-one] | 1150 | 319 ± 14.3 | 3.6 | 26.2 | 70.4 ± 9.6 | significantly decreased | IC50 ([4]; infected macrophages treated 48 h, promastigote recovery, MTT, read-out: Amastigotes IC50 ± SE): 43.7 ± 13.7 µM; IC50 [6]: 13.5 ± 5.5 µM
3 | COc1ccc(/C=C/C(=O)c2ccccc2Cl)cc1 [LC34] | 3010 | 747 ± 22.3 | 4.0 | 46.0 | 65.4 ± 10.9 | no significant difference to the untreated control | –
4 | O=C(C=Cc1ccc(F)cc1)c1ccccc1Cl [LC32, 1-(2-Chlorophenyl)-3-(4-fluorophenyl)-2-Propen-1-one] | 479 ± 19.5 | 74.1 ± 10.9 | 6.5 | 4.3 | 112 ± 19.8 | significantly decreased | –
5 | O=c1c(O)c(-c2ccc(O)c(O)c2)oc2cc(O)cc(O)c12 [quercetin] | – | – | – | – | – | – | ARGLi inhibition (%) (100 μM) [7]: 67.1 ± 10.3%
6 | O=C(C=Cc1ccc([N+](=O)[O-])cc1)c1ccc(Br)cc1 [LC39, 1-(4-Bromophenyl)-3-(4-Nitrophenyl)-2-Propen-1-one] | – | – | 11.4 | 107.1 | – | no significant difference to the untreated control | CC50 at 48 h [1]: 4530 ± 212 µM; IC50 ([3]; 96 h): 398 ± 44.2 µM; IC50 ([4]; Leishmania infantum, Macrophage, 48 h, read-out: Amastigotes IC50 ± SE, infected macrophages treated 48 h, promastigote recovery, MTT): 55.2 ± 3.8 µM; IC50 ([4]; read-out: Amastigotes IC50 ± SE, infected macrophages treated 48 h, promastigote recovery, MTT): 42.3 ± 17.1 µM
7 | COc1ccc(C=CC(=O)c2ccc(Br)cc2)cc1OC [LC14, 1-(4-bromophenyl)-3-(3,4-dimethoxyphenyl)-2-Propen-1-one] | 75.1 ± 8.9 | 283 ± 14.2 | <1 | – | – | – | IC50 [6]: 58.9 ± 6.8 µM
8 | O=C1c2c(O)cc(O)cc2OC(c2ccc(O)c(O)c2)C1O (stereo not shown) [taxifolin] | – | – | – | – | – | – | LaARG inhibition [8]: 88%
